Experimental data published in publication PMC8286840, “Identifying SARS-CoV-2 antiviral compounds by screening for small molecule inhibitors of Nsp3 papain-like protease” (Biochemical Journal, 2021).
Structures can show the parent of a compound that is named as a salt. Where two headings read alike, the source gives them in different places.

Tests used:
[1] = target: T1, SARS-CoV-2 PLpro (nsp3 1564–1878) (Severe acute respiratory syndrome coronavirus 2, UniProt P0DTD1); test: biochemical; parameters: FRET-quenched peptide (Pro3) cleavage by PLpro, 10 min pre-incubation, slope over 20 min, normalised to no-compound control; conditions: high concentration screen, read-out: % of control remaining
[2] = target: T1, SARS-CoV-2 PLpro (nsp3 1564–1878); test: biochemical; parameters: FRET-quenched peptide (Pro3) cleavage by PLpro, 10 min pre-incubation, slope over 20 min, normalised to no-compound control; conditions: low concentration screen, read-out: % of control remaining

## CC(C(=O)O)c1cccc(Oc2ccccc2)c1 (stereo not shown) [Fenoprofen]
[1]; Well no.=2082
  remaining activity at 3.75 µM: 99.2%
[2]; Well no.=2082
  remaining activity at 1.25 µM: 98.6%

## CC(Cc1ccc(O)cc1)NCC(O)c1cc(O)cc(O)c1 (stereo not shown) [Fenoterol hydrobromide]
[1]; Well no.=705
  remaining activity at 3.75 µM: 100%
[2]; Well no.=705
  remaining activity at 1.25 µM: 104%

## CC1=C(/C=C/C(C)=C/C=C/C(C)=C/C(=O)Nc2ccc(O)cc2)C(C)(C)CCC1 [Fenretinide]
[1]; Well no.=1577
  remaining activity at 3.75 µM: 92.2%
[2]; Well no.=1577
  remaining activity at 1.25 µM: 92.1%

## O=C1NCC2(CCN(CCc3ccccc3)CC2)O1 [Fenspiride (Hydrochloride)]
[1]; Well no.=6705
  remaining activity at 3.75 µM: 100%
[2]; Well no.=6705
  remaining activity at 1.25 µM: 104%

## O=C1NCC2(CCN(CCc3ccccc3)CC2)O1 [Fenspiride hydrochloride]
[1]; Well no.=469
  remaining activity at 3.75 µM: 103%
[2]; Well no.=469
  remaining activity at 1.25 µM: 99.1%

## O=C(O)Cc1sc(-c2ccccc2)nc1-c1ccc(Cl)cc1 [Fentiazac]
[1]; Well no.=1772
  remaining activity at 3.75 µM: 97.2%
[2]; Well no.=1772
  remaining activity at 1.25 µM: 100%

## Clc1ccc(C(Cn2ccnc2)OCc2ccc(Sc3ccccc3)cc2)c(Cl)c1 (stereo not shown) [Fenticonazole nitrate]
[1]; Well no.=5044
  remaining activity at 3.75 µM: 95.9%
[2]; Well no.=5044
  remaining activity at 1.25 µM: 96.2%

## C/C1=C/CCC(C)(O)/C=C\C(C(C)C)C(OC(=O)c2ccc(O)cc2)C1 (stereo not shown) [Feroline]
[1]; Well no.=3493
  remaining activity at 3.75 µM: 99.5%
[2]; Well no.=3493
  remaining activity at 1.25 µM: 101%

## CCOC(=O)c1ccc(NC2CCCCC2)c(N)c1 [Ferrostatin-1]
[1]; Well no.=6252
  remaining activity at 3.75 µM: 98%
[2]; Well no.=6252
  remaining activity at 1.25 µM: 103%

## COc1cc(/C=C/C(=O)O)ccc1O [Ferulic acid (sodium)]
[1]; Well no.=8535
  remaining activity at 3.75 µM: 106%
[2]; Well no.=8535
  remaining activity at 1.25 µM: 107%

## CCOC(=O)/C=C/c1ccc(O)c(OC)c1 [Ferulic acid ethylester]
[1]; Well no.=3853
  remaining activity at 3.75 µM: 103%
[2]; Well no.=3853
  remaining activity at 1.25 µM: 97.6%

## COc1cc(/C=C/C(=O)O)ccc1O [Ferulic acid]
[1]; Well no.=3518
  remaining activity at 3.75 µM: 100%
[2]; Well no.=3518
  remaining activity at 1.25 µM: 98.9%

## Cc1c(CC(=O)O)c2cccnc2n1Cc1ccc(S(C)(=O)=O)cc1C(F)(F)F [Fevipiprant]
[1]; Well no.=7767
  remaining activity at 3.75 µM: 106%
[2]; Well no.=7767
  remaining activity at 1.25 µM: 106%

## COC(=O)/C=C/c1cccc(N(Cc2ccc(-c3ccc(N(C)C)cc3)cc2)C(=O)C2CCCCC2)c1 [Fexaramine]
[1]; Well no.=5559
  remaining activity at 3.75 µM: 104%
[2]; Well no.=5559
  remaining activity at 1.25 µM: 97.4%

## CC(C)(C(=O)O)c1ccc(C(O)CCCN2CCC(C(O)(c3ccccc3)c3ccccc3)CC2)cc1 (stereo not shown) [Fexofenadine (hydrochloride)]
[1]; Well no.=6619
  remaining activity at 3.75 µM: 105%
[2]; Well no.=6619
  remaining activity at 1.25 µM: 104%

## CC(C)(C(=O)O)c1ccc(C(O)CCCN2CCC(C(O)(c3ccccc3)c3ccccc3)CC2)cc1 (stereo not shown) [Fexofenadine hydrochloride]
[1]; Well no.=425
  remaining activity at 3.75 µM: 92.8%
[2]; Well no.=425
  remaining activity at 1.25 µM: 93.1%

## COc1cccc2c1[C@@H]1CN(CCCCn3c(=O)[nH]c4c(sc5ncc(-c6ccccc6)nc54)c3=O)C[C@@H]1CO2 [Fiduxosin hydrochloride]
[1]; Well no.=611
  remaining activity at 3.75 µM: 97.4%
[2]; Well no.=611
  remaining activity at 1.25 µM: 97.2%

## COc1cc(C(=O)OC2CC3CCC(C2)N3C)ccc1O (stereo not shown) [Fillalbin]
[1]; Well no.=3539
  remaining activity at 3.75 µM: 97.4%
[2]; Well no.=3539
  remaining activity at 1.25 µM: 92.8%

## CCCCc1nc(C)c(CC(=S)N(C)C)c(=O)n1Cc1ccc(-c2ccccc2-c2nnn[nH]2)cc1 [Fimasartan]
[1]; Well no.=6183
  remaining activity at 3.75 µM: 103%
[2]; Well no.=6183
  remaining activity at 1.25 µM: 107%

## CC(C)(C)NC(=O)[C@H]1CC[C@H]2[C@@H]3CC[C@H]4NC(=O)C=C[C@]4(C)[C@H]3CC[C@]12C [Finasteride]
[1]; Well no.=2086
  remaining activity at 3.75 µM: 104%
[2]; Well no.=2086
  remaining activity at 1.25 µM: 99%

## CCOCc1cc(OC)c(-c2ccc(C[C@H](NC(=O)c3c(F)cccc3F)C(=O)O)cc2)c(OC)c1 [Firategrast]
[1]; Well no.=7930
  remaining activity at 3.75 µM: 99%
[2]; Well no.=7930
  remaining activity at 1.25 µM: 103%

## O=c1c(O)c(-c2ccc(O)c(O)c2)oc2cc(O)ccc12 [Fisetin]
[1]; Well no.=3443
  remaining activity at 3.75 µM: 95%
[1]; Well no.=6254
  remaining activity at 3.75 µM: 99.6%
[2]; Well no.=3443
  remaining activity at 1.25 µM: 91.4%
[2]; Well no.=6254
  remaining activity at 1.25 µM: 104%

## O=C1C[C@@H](c2ccc(O)c(O)c2)Oc2c1ccc(O[C@@H]1O[C@H](CO)[C@@H](O)[C@H](O)[C@H]1O)c2O [Flavanomarein]
[1]; Well no.=3805
  remaining activity at 3.75 µM: 100%
[2]; Well no.=3805
  remaining activity at 1.25 µM: 96.3%

## COc1ccc(/C=C/C(=O)c2c(O)cc(OC)cc2OC)cc1 [Flavokawain A]
[1]; Well no.=3607
  remaining activity at 3.75 µM: 105%
[2]; Well no.=3607
  remaining activity at 1.25 µM: 104%

## COc1cc(O)c(C(=O)/C=C/c2ccccc2)c(OC)c1 [Flavokawain B]
[1]; Well no.=3685
  remaining activity at 3.75 µM: 100%
[2]; Well no.=3685
  remaining activity at 1.25 µM: 98.5%

## Cc1c(-c2ccccc2)oc2c(C(=O)OCCN3CCCCC3)cccc2c1=O [Flavoxate (hydrochloride)]
[1]; Well no.=6803
  remaining activity at 3.75 µM: 94.8%
[2]; Well no.=6803
  remaining activity at 1.25 µM: 94.8%

## Cc1c(-c2ccccc2)oc2c(C(=O)OCCN3CCCCC3)cccc2c1=O [Flavoxate HCl]
[1]; Well no.=5084
  remaining activity at 3.75 µM: 102%
[2]; Well no.=5084
  remaining activity at 1.25 µM: 99%

## O=C(NCC1CCCCN1)c1cc(OCC(F)(F)F)ccc1OCC(F)(F)F (stereo not shown) [Flecainide acetate]
[1]; Well no.=709
  remaining activity at 3.75 µM: 98.3%
[1]; Well no.=1649
  remaining activity at 3.75 µM: 101%
[2]; Well no.=709
  remaining activity at 1.25 µM: 98.5%
[2]; Well no.=1649
  remaining activity at 1.25 µM: 101%

## CN1CCN(c2c(F)cc3c(=O)c(C(=O)O)cn(CCF)c3c2F)CC1 [Fleroxacin]
[1]; Well no.=2120
  remaining activity at 3.75 µM: 96.3%
[2]; Well no.=2120
  remaining activity at 1.25 µM: 92.9%

## O=c1[nH]c(=O)n([C@H]2C[C@H](O)[C@@H](CO)O2)cc1F [Floxuridine]
[1]; Well no.=2124
  remaining activity at 3.75 µM: 102%
[1]; Well no.=8010
  remaining activity at 3.75 µM: 86.4%
[2]; Well no.=2124
  remaining activity at 1.25 µM: 98.1%
[2]; Well no.=8010
  remaining activity at 1.25 µM: 88%

## c1ccc(-c2cnc(Nc3ccc(OCCN4CCCC4)cc3)s2)cc1 [Flt-3 Inhibitor III]
[1]; Well no.=2421
  remaining activity at 3.75 µM: 98.8%
[2]; Well no.=2421
  remaining activity at 1.25 µM: 99.3%

## O=C(c1cc2cc(O)ccc2[nH]1)c1cc2cc(O)ccc2[nH]1 [Flt-3 Inhibitor II]
[1]; Well no.=2409
  remaining activity at 3.75 µM: 110%
[2]; Well no.=2409
  remaining activity at 1.25 µM: 109%

## COc1ccc(C(=O)Nc2sc3c(c2C(N)=O)CCCC3)cc1OC [Flt-3 Inhibitor]
[1]; Well no.=2407
  remaining activity at 3.75 µM: 105%
[2]; Well no.=2407
  remaining activity at 1.25 µM: 105%

## COC(=O)Nc1nc2cc(C(=O)c3ccc(F)cc3)ccc2[nH]1 [Flubendazole]
[1]; Well no.=2128
  remaining activity at 3.75 µM: 103%
[2]; Well no.=2128
  remaining activity at 1.25 µM: 101%

## OC(Cn1cncn1)(Cn1cncn1)c1ccc(F)cc1F [Fluconazole]
[1]; Well no.=2132
  remaining activity at 3.75 µM: 100%
[2]; Well no.=2132
  remaining activity at 1.25 µM: 99.9%
